Results reported in patent US20090074885A1, “Reversible Hydrophobic Modification of Drugs for Improved Delivery to Cells” (Roche Madison Inc., priority 2003, published 2009).
Like-named read-outs stand apart in the source and are kept apart here.

Key:
[1] = system: Jurkat (human T-lymphocyte) cells; test: In vitro cellular uptake by fluorescence microscopy, Jurkat; format: cell-based; settings: FIG. 5B
Description: In Vitro cellular uptake of PI, RRH-PI compounds, and IV evaluated by fluorescence measurements. […] Adherent cells were plated at 2.5×10^5 cells/well on 6-well plates 24 h prior to testing. The growth media was removed from individual wells and the drug/prodrug was immediately added to the well with the mixing chamber. […] After 30 sec the drug solution was removed (aspirated) and 2 ml complete media was added to the cells. Experiments conducted with prodrug that was hydrolyzed prior to application to the cells followed a similar protocol, however the combined solution obtained after passing through the mixing chamber was collected and allowed to sit at ambient temperature for 5 min prior to application on the cells. Experiments conducted with Calcein AM (Invitrogen, 100 μl of 20 μM solution in complete media) followed a similar protocol for drug treatment (4 min treatment). Experiments conducted with SYTOX Green (Invitrogen) followed a similar protocol for drug treatment. […] Each condition was repeated in 2 or 3 wells, and the cells were immediately examined by microscopy. Fluorescent microscopy studies were conducted with a three laser LSM 510 confocal microscope, an Axiovert S100 fluorescent microscope, or an Axioplan2 fluorescent microscope (all Zeiss) equipped with filter sets for the rhodamine fluorescence channel (λex=BP 450/12, λem=LP 590 nm filter set) and the fluorescein fluorescent channel (λex=BP 546/90, λem=LP 515 nm filter set). Imaging was performed with an AxioCam digital camera (Zeiss), with AxioVision imaging software (V 4.5, Zeiss). For all images, identical camera settings and exposure times were used on comparative sample and control images. Images were processed with Photoshop (Adobe) for level and brightness using identical settings between sample and control images. For experiments conducted on Jurkat cells (8.0×10^5 cells/ml in media), the cells were isolated by centrifugation and resuspended in ITG at a density of 4.0×10^6 cells/ml. Exposure to the drug/prodrug was conducted by passing the cells in suspension in ITG (200 μl) through the mixing chamber. […]

[2] = system: SK-OV-3 peritoneal tumors; test: Direct application / IP injection in mouse model of disseminated peritoneal ovarian cancer; format: in vivo, nude mice; settings: two weeks after SK-OV-3 inoculation, direct application or IP injection
Description: BDMODS-PI and C12PMMA-PI show enhanced drug uptake by surface tissue and microtumors following IP and intraperitoneal perfusion chemotherapy (IPPC) application in a mouse tumor model. For establishment of the cancer model, 2×10^6 SK-OV-3 cells were injected IP into nude mice. The mice were examined at two weeks following cell inoculation, or at the first manifestation of ascites (about 4-5 wks). Tissue samples were fixed in 10% NBF, routinely processed, stained with H&E stain, and subjected to histopathological analysis. […] At 4-5 weeks after SK-OV-3 cell inoculation, maximum tumor size increased to 5-7 mm with the bulk of cancer development present as about 0.1 to about 1 mm microtumors (FIG. 9). At 5 wks most peritoneal surfaces were affected by growing cancer cells, coating both the visceral and parietal peritoneum, e.g. liver, pancreas, and diaphragm. […]
Two weeks following cell inoculation, the abdominal cavity was opened and the drug mixture was directly applied on the duodenum and ovary/uterus/fallopian tubes (220 μL of drug-OS/ITG over 30 sec). […] Cellular uptake of the prodrug was stronger at the surface of the metastases, but also readily detectable in the middle of the small tumors (tumor size about 0.5 to about 1 mm; FIG. 7-8). […]

[3] = system: Hepa 1-6 (mouse hepatoma); test: WST cytotoxicity assay, Hepa 1-6; format: cell-based; settings: for IC50: Hepa 1-6, 4 min drug exposure, read-out: Mean IC50
Description: Antiproliferative/Cytotoxic in vitro studies on PI, RRH-PI prodrugs, melphalan, and C12PMMA-melphalan. In vitro cytotoxicity testing was conducted on Hepa 1-6 (mouse hepatoma), SK-OV-3 (human ovarian carcinoma), and MC38 (mouse colon carcinoma) cells using a tetrazolium based assay (WST, Dojindo Molecular Technologies). For the WST assay, Hepa 1-6 (2.0×10^5 cells well), SK-OV-3 (7.5×10^5 cells well), and MC38 (8.5×10^5 cells well) were seeded in 1000 μL media into 12-well plates 24 h prior to testing (starting confluency ˜50%). Following removal of media, drug/prodrug solution was added drop-wise to quadruplicate wells, using the mixing chamber. Effective drug concentrations were calculated from the amount of drug added in the total volume of OS and aqueous solution. Following 4 min of drug solution exposure, the solution was removed, and 1000 μl fresh complete media was added to each well. After the cells were incubated for 24-48 h, WST-1 (20 μl of a 5 mM solution in PBS) and N-methylphenazonium methyl sulfate (PMS, 20 μl 0.2 mM solution in PBS) were added and the cells were incubated for 1-4 h. For testing with MC38 cells, the amounts of WST-1 and PMS were doubled. Following incubation, 100 μl of sample was transferred to quadruplicate wells on a 96-well plate, and the absorbance (438 nm) values were measured on a SPECTRAmax Plus^384 microplate spectrophotometer (Molecular Devices Corporation). Data represents the mean A438 values of 16 wells with standard deviation, corrected for media contribution, and normalized against cells in media with no drug/prodrug treatment (reported as % cell viability±standard deviation).
The concentration of drug (μM) that is required for 50% inhibition in vitro is reported as the IC50. The reported values were calculated from the best fit line (Excel) for a plot of effective drug concentration against % cell viability, and include the r^2 value. The reported IC50 values for multiple RRH-PI plots are reported as IC50 (μM)±standard deviation.

| Structure (SMILES) | cells stained [1] [%] | cellular uptake and staining [1] | labeling of peritoneal tumors [2] | IC50 ([3]; WST 24 h after) [µM] | IC50 ([3]; WST 48 h after) [µM] | cell viability at highest concentration tested, prodrug premixed with ITG (10 min) ([3]; Hepa 1-6, 833 μM) [%] |
| --- | --- | --- | --- | --- | --- | --- |
| CCCCCCCCCCCCNC(=O)CCC(=CCC(=O)O)C(=O)Nc1ccc2c(c1)c(-c1ccccc1)[n+](CCC[N+](C)(CC)CC)c1cc(NC(=O)C(=CCC(=O)O)CCC(=O)NCCCCCCCCCCCC)ccc21.[I-].[I-] [III, 3,8-bis-[2-(2 carboxyethylidene)-4-(dodecarbamoyl)-1-oxo-butylamine] 5-(3,3-diethyl-3-methylammoniumpropyl) 6-phenyl phenanthridinium diiodide] | ~100 | strong cellular uptake and staining | intensely labeled | – | – | – |
| CC[N+](C)(CC)CCC[n+]1c(-c2ccccc2)c2cc(N)ccc2c2ccc(N)cc21.[I-].[I-] [PI, Propidium iodide, reference compound] | – | stained very few cells | – | > 1250 | > 1700 | – |
| CCCCCCCCCCCCCCCCCC[Si](C)(C)Nc1ccc2c(c1)c(-c1ccccc1)[n+](CCC[N+](C)(CC)CC)c1cc(N[Si](C)(C)CCCCCCCCCCCCCCCCCC)ccc21.[I-].[I-] [II, 3,8-bis[((dimethyl)octadecylsilazyl)amine] 5-(3,3-diethyl-3-methylammoniumpropyl) 6-phenyl phenanthridinium diiodide] | – | – | intensely labeled | 282 | 334 | 108±1.3 |
